Experimental data: patent publication US5395610A, “Agents for potentiating the effects of antitumor agents and combating multiple drug resistance” (Burroughs-Wellcome Co., priority 1989, dated 1995)
*1 amine or outer side, *2 acyl side, *3 side chain or, on linkers, in order; H or OH if unused. Where a SMILES comes first, the peptide text is derived from it. Bridges are numbered along the chain shown (N, C = ends). Roman numbers before positions name the chains, in order. [ ]: non-standard residue; d: D form. Actinocin(9to1) = Cc1c2oc3c(C)ccc(C(=O)[*:1])c3nc-2c(C(=O)[*:2])c(N)c1=O; NMeV = CN[C@H](C(=O)O)C(C)C; Sar = CNCC(=O)O

Experiments:
[1] = tested on: resistant sublines of murine leukemia cells; conditions: cited from earlier work
[2] = tested on: Chinese hamster ovary (CHO) cells, wildtype AuxB1; test: cells; assay type: cell-based; conditions: Cricetulus griseus, AuxB1, read-out: reduction in cell number below the value of completely untreated cultures
in vitro = assay type: cell-based, Chinese hamster; conditions: hamster, cho auxb1 cells
[3] = In vitro cytotoxicity / potentiation of Actinomycin D in Chinese hamster ovary cells, drug resistant C5S32 (MTT); assay type: cell-based; conditions: hamster, cho c5s32 cells, fraction of untreated cultures (1.00), read-out: Cytotoxicity, normalized absorbance, Drug Resistant C5S32, 0 (no Act D)
[4] = tested on: Chinese hamster ovary (CHO) cells, drug resistant C5S32; test: as above; assay type: cell-based; conditions: 96 h, fraction of Act D alone (1.00)
[5] = In vitro cytotoxicity / potentiation of Actinomycin D in human KB epidermoid carcinoma cells, wildtype KB 3-1 (MTT); assay type: cell-based; conditions: human, kb 3-1 cells, fraction of untreated cultures, read-out: Cytotoxicity, normalized absorbance, Wildtype KB 3-1, 0 (no Act D)
[6] = tested on: human KB epidermoid carcinoma cells, wildtype KB 3-1; test: as above; assay type: cell-based; conditions: 96 h, fraction of Act D alone
[7] = In vitro cytotoxicity / potentiation of Actinomycin D in human KB epidermoid carcinoma cells, drug resistant KB V-1 (MTT); assay type: cell-based; conditions: human, kb v-1 cells, fraction of untreated cultures, read-out: Cytotoxicity, normalized absorbance, Drug Resistant KB V-1, 0 (no Act D)
[8] = tested on: human KB epidermoid carcinoma cells, drug resistant KB V-1; test: as above; assay type: cell-based; conditions: 96 h, fraction of Act D alone

SMILES: CN(C)CCCN1c2ccccc2CCc2ccc(Cl)cc21 [clomipramine]
- enhancement of the activity of antitumor agents against resistant sublines of murine leukemia cells [1]: enhance the activity of antitumor agents

SMILES: CCN(CC)CCn1c(=O)c(Cc2ccc(OC)cc2)nc2ccccc21 [caroverine]
- enhancement of the activity of antitumor agents against resistant sublines of murine leukemia cells [1]: enhance the activity of antitumor agents

SMILES: Cc1c2oc3c(C)ccc(C(=O)N[C@@H]4C(=O)N[C@H](C(C)C)C(=O)N5CCC[C@H]5C(=O)N(C)CC(=O)N(C)[C@@H](C(C)C)C(=O)O[C@@H]4C)c3nc-2c(C(=O)N[C@@H]2C(=O)N[C@H](C(C)C)C(=O)N3CCC[C@H]3C(=O)N(C)CC(=O)N(C)[C@@H](C(C)C)C(=O)O[C@@H]2C)c(N)c1=O [Actinomycin D, reference compound] (I: T[dV]P[Sar][NMeV] / II: T[dV]P[Sar][NMeV]; ester I:1-I:C, II:1-II:C; linker I:N-II:N via Actinocin(9to1))
- inhibition at 0.01 µM [2]: 10 to 20%

SMILES: COc1ccc([C@@H]2Sc3ccccc3N(CCN(C)C)C(=O)[C@@H]2OC(C)=O)cc1 [diltiazem]
- enhancement of the activity of antitumor agents against resistant sublines of murine leukemia cells [1]: enhance the activity of antitumor agents

SMILES: CN1CCN(CCCN2c3ccccc3Sc3ccc(C(F)(F)F)cc32)CC1 [trifluoperazine]
- enhancement of the activity of antitumor agents against resistant sublines of murine leukemia cells [1]: enhance the activity of antitumor agents

SMILES: C=C[C@H]1C[N@@]2CC[C@H]1C[C@@H]2[C@@H](O)c1ccnc2ccc(OC)cc12 [quinidine]
- enhancement of the activity of antitumor agents against resistant sublines of murine leukemia cells [1]: enhance the activity of antitumor agents

SMILES: COC(=O)C1=C(C)NC(C)=C(C(=O)OCCN(C)Cc2ccccc2)C1c1cccc([N+](=O)[O-])c1 (stereo not shown) [nicardipine]
- enhancement of the activity of antitumor agents against resistant sublines of murine leukemia cells [1]: enhance the activity of antitumor agents

SMILES: COc1ccc(CCN(C)CCCC(C#N)(c2ccc(OC)c(OC)c2)C(C)C)cc1OC (stereo not shown) [Verapamil]
- enhancement of the activity of antitumor agents against resistant sublines of murine leukemia cells [1]: enhance the activity of antitumor agents

SMILES: Brc1ccc2c(c1)/C(=C\CCN1CCCC1)c1ccccc1CO2 [(G), (Z)-1-[3-(2-Bromo-6,11-dihydrodibenz [b,e]-oxepin-11-ylidene)propyl]pyrrolidine]
- viability at 96 h, 1 µM (in vitro): 100%
- viability at 96 h, 10 µM (in vitro): 100%
- viability at 96 h, 1 µM ([3]; 1 μM potentiating agent alone): 54%
- viability at 96 h, 10 µM ([3]; 10 μM potentiating agent alone): 15%
- Synergism with Actinomycin D, normalized absorbance, Drug Resistant C5S32, +ACT D ([4]; 1 μM potentiating agent + Act D 0.5 μM): 0.47
- Synergism with Actinomycin D, normalized absorbance, Drug Resistant C5S32, +ACT D ([4]; 10 μM potentiating agent + Act D 0.5 μM): 0.10
- viability at 96 h, 1 µM ([5]; 1 μM potentiating agent alone): 87%
- viability at 96 h, 10 µM ([5]; 10 μM potentiating agent alone): 74%
- Synergism with Actinomycin D, normalized absorbance, Wildtype KB 3-1, +ACT D ([6]; 1 μM potentiating agent + Act D 0.1 nM): 0.80
- Synergism with Actinomycin D, normalized absorbance, Wildtype KB 3-1, +ACT D ([6]; 10 μM potentiating agent + Act D 0.1 nM): 0.87
- viability at 96 h, 1 µM ([7]; 1 μM potentiating agent alone): 86%
- viability at 96 h, 10 µM ([7]; 10 μM potentiating agent alone): 70%
- Synergism with Actinomycin D, normalized absorbance, Drug Resistant KB V-1, +ACT D ([8]; 1 μM potentiating agent + Act D 20 nM): 0.91
- Synergism with Actinomycin D, normalized absorbance, Drug Resistant KB V-1, +ACT D ([8]; 10 μM potentiating agent + Act D 20 nM): 0.35
